Like-named read-outs stand apart in the source and are kept apart here.
Format: in vitro ADME
Settings: for Nail (summary) / Receptor (summary) / Total nail (summary): 10 mM
Method: The donor solution in experiment 2 consisted of: 0.36% (10 mM) amorolfine HCl in an aqueous solution containing 50 mM NaCl and 0.4% Tween 80. The experiment was performed at pH 3.9 without further adjustment.
The donor solution in experiment 3 consisted of: 0.36% (10 mM) amorolfine HCl in an 40:60 (w:w) Tris buffer:ethanol. The Tris buffer contained 50 mM Tris and 50 mM NaCl at pH 7.4. The pH of the buffer:ethanol solution was ˜7.5. After addition of the drug the pH was ˜5.5.
The donor solution in experiments 4 and 5 consisted of: 1% (28 mM) amorolfine HCl in an 40:60 (w:w) Tris buffer:ethanol. The Tris buffer contained 50 mM Tris and 50 mM NaCl at pH 7.4. The pH of the buffer:ethanol solution was ˜7.5. After addition of the drug the pH was ˜4.7.
Receptor solution: pH 7.4 PBS containing 0.25% Tween 80 (same as Expt. 2).
Diffusion cells: 15 mm diameter Franz diffusion cells were used. The “nail assemblage” was placed in […] the donor and receptor chambers.
Nail device: A nail was glued […] two silicone rings with an internal orifice of 5 mm diameter.
The thickness of the nails was measured with a micrometer. Before hydration nail thickness in the periphery was measured in three places. The central part was not measured at this time to avoid any risk of breaking the nail. The nails were soaked overnight in 50 mM NaCl solution. Because of the increased flexibility of the nail after soaking, it was then possible to measure the thickness in the central part, upper part and lateral corner of the nail (Table 1):
Testing for leaks and iontophoretic circuit: Before starting the iontophoretic experiment, the absence of leaks was tested for each cell. The donor and receptor chambers were filled with donor (without drug) and receptor buffer, respectively, and a 0.1 mA current was passed. In the presence of leaks, the resistance of the circuit is low and the voltage needed to drive the current is very small (˜1V).
The voltages observed at the start of current passage decreased rapidly to settle at (˜30V after approximately 20 minutes.
Once the stability of the circuit with the three cells was assured, the donor compartment was filled with the drug solution and the current re-started.
The intensity of current was 0.1 mA, equivalent to 0.51 mA/cm^2 (area exposed=0.196 cm^2).
One sample was taken after 18 hours of iontophoresis for experiment 2 and 20 hours for experiments 3 and 4. The receptor was then refilled and a passive post-iontophoretic period of 4 hours elapsed before a second sample was obtained.
After recovery of the donor solution, the anode chamber was rinsed twice with ethanol to clean residual solution from the surface of the nail. Then, the nail was cut out of the silicone ring, weighed, dissolved in Soluene®, and assayed for radioactivity.
Experiment 5 is a passive control.

flux of amorolfine, comparison of experiments: higher flux
Nail (summary) (18 h, pH 3.9): 5.1 ± 4.3 nmol/mg
Receptor (summary) (18 h, pH 3.9): 2.4 ± 0.5 nmol
Total nail (summary) (18 h, pH 3.9): 38 ± 13 nmol
Nail (summary) (20 h): 3.2 ± 0.6 nmol/mg
Receptor (summary) (20 h): 1.7 ± 0.7 nmol
Total nail (summary) (20 h): 28 ± 3.6 nmol
Structure (SMILES): CCC(C)(C)c1ccc(CC(C)CN2C[C@@H](C)O[C@@H](C)C2)cc1 (stereo partly drawn) [Amorolfine, cis-4-[3-[4-(1,1-dimethylpropyl)phenyl]-2-methylpropyl]-2,6-dimethylmorpholine]
effect of iontophoresis on drug delivery into and through the nail: enhances drug delivery into and trough the nail

Reference: patent US20100291012A1, “ADMINISTRATION OF AMOROLFINE BY IONTOPHORESIS FOR TREATING NAIL DISEASES” (GALDERMA S.A., priority 2008, published 2010)
